Assay results as given in the NIST ThermoML archive (doi:10.1021/je401008s).

Experiment: xn = mol fraction of the nth substance listed
Conditions: Liquid, Taylor dispersion method, x1 = 0

O=C=O [carbon dioxide] + O
Conditions | binary diffusion coefficient [m2/s]
298 K, 14000 kPa | 2.23e-09
298 K, 31600 kPa | 2.26e-09
298 K, 47700 kPa | 2.22e-09
323 K, 14200 kPa | 3.64e-09
323 K, 31800 kPa | 3.72e-09
323 K, 48600 kPa | 3.94e-09
348 K, 14900 kPa | 5.39e-09
348 K, 31800 kPa | 5.31e-09
348 K, 49300 kPa | 5.37e-09
373 K, 14900 kPa | 7.42e-09
373 K, 31000 kPa | 7.52e-09
373 K, 48500 kPa | 7.68e-09
398 K, 14300 kPa | 9.95e-09
398 K, 30900 kPa | 1.01e-08
398 K, 48000 kPa | 1.02e-08
423 K, 14300 kPa | 1.23e-08
423 K, 48000 kPa | 1.22e-08

N#N [nitrogen] + O
Conditions | binary diffusion coefficient [m2/s]
298 K, 12000 kPa | 1.99e-09
298 K, 25000 kPa | 2e-09
298 K, 44600 kPa | 1.98e-09
323 K, 14600 kPa | 3.28e-09
323 K, 25100 kPa | 3.47e-09
323 K, 45000 kPa | 3.2e-09
373 K, 14800 kPa | 6.62e-09
373 K, 45000 kPa | 6.42e-09
423 K, 26900 kPa | 1.07e-08
423 K, 45900 kPa | 1.04e-08
